Reference: patent publication US20050123604A1, “Pharmaceutical compositions” (priority 2002, published 2005)

Legend:
[1] = blood plasma half life after oral administration; assay type: in vivo; details: oral administration of immediate release composition
From the text: The pharmaceutical compositions useful in the practice of the invention are for oral administration and are “immediate release” dosage forms. That is, the pharmaceutical compositions useful in the practice of the invention have neither the pharmacokinetic nor physical characteristics of extended release pharmaceutical dosage forms. Thus, a pharmaceutical composition useful in the practice of the invention, if in solid form, will disintegrate or dissolve rapidly, preferably within one hour of administration, and administration of a pharmaceutical composition useful in the practice of the invention will result in a rapid rise in the blood plasma concentration of 5-methyl-2-(2′-chloro-6′-fluoroanilino)phenylacetic acid. Preferably, the blood plasma concentration of 5-methyl-2-(2′-chloro-6′-fluoroanilino)phenylacetic acid will reach a maximum within two to six hours after oral administration and will then fall rapidly due to the relatively short (3 to 6 hour) half life of 5-methyl-2-(2′-chloro-6′-fluoroanilino)phenylacetic acid.

[2] = chemical stability of drug substance in tablets as a function of residual moisture (LOD); assay type: physicochemical; details: LOD kept at about 2.1%-4.5% (200 mg tablets) or about 1.7%-3.5% (400 mg, 65% drug-loaded tablets)
Procedure: That is, certain degradation products of 5-methyl-2-(2′-chloro-6′-fluoroanilino)phenylacetic acid are formed at a greater rate in dryer tablets, which is contrary to the typical behavior of drug substances. In general, moisture, in the form of water, is detrimental to drug stability, and packaging for pharmaceutical formulations frequently contains some form of desiccant material to minimize moisture levels.
Tablets with about 200 mg of active agent preferably have an LOD of 3.5% with a desirable range between about 2.1% and about 4.5%. 65% drug-loaded tablets with about 400 mg of active agent preferably have an LOD of about 2.5%, with a desirable range between about 1.7% and about 3.5%.
The compositions and methods of the invention provide solid pharmaceutical compositions for oral administration comprising 5-methyl-2-(2′-chloro-6′-fluoroanilino)phenylacetic acid with minimal levels of total degradation products Oral dosage levels for 5-methyl-2-(2′-chloro-6′-fluoroanilino)phenylacetic acid are of the order of between about 200 and about 1200 mg per patient per day. In a preferred embodiment, the effective amount is between about 200 and about 800 mg. In a more preferred embodiment, the effective amount is between about 200 and about 600 mg. In an even more preferred embodiment, the effective amount is between about 200 and about 400 mg. […]

Cc1ccc(Nc2c(F)cccc2Cl)c(CC(=O)O)c1 [5-methyl-2-(2′-chloro-6′-fluoroanilino)phenylacetic acid]
half-life [1]: 3 to 6 h
chemical stability of the active agent in tablets [2]: more chemically stable
